# Measured values published in patent US9060997B2, “Antifolate compounds for the treatment of melanoma” (UNIVERSIDAD DE MURCIA, priority 2007, dated 2015).
# How the values were obtained:
# H1264 cells = experiment: MTT cell proliferation assay, H1264; type: cell-based; conditions: Homo sapiens, 144 h; H1264, 6 days of treatment
# Method: Four human cancer cells lines (SkMel-28, MCF7, H1264 and Caco-2) were obtained from the American Type Tissue Culture Collection (ATCC) and were maintained in appropriate culture mediums supplemented with 10% fetal calf serum (FCS) and antibiotics, under standard tissue culture conditions (e.g. modified Eagle's medium (MEM) containing 1 mM sodium pyruvate and 10% fetal bovine serum (FES) under 5% CO2/95% air atmosphere.). Cell injury was evaluated by a colorimetric assay for mitochondrial function using the 3-(4,5-dimethylthiazolyl-2)-2,5-diphenyltetrazolium bromide (MTT) cell proliferation assay. For this assay cells were plated in a 96-well plate at a density of 1000 cells/well and grown until they reached 50-60% confluence. Human epidermal melanocytes (HeM) were supplied by Gentaur and were cultured in HAM-F10 medium supplemented with 10% FCS, antibiotics and the human melanocyte growth supplement (Gentaur).
# FRα mRNA = experiment: FRα expression in SkMel-28 (real-time PCR, RT-PCR); type: cell-based, human; conditions: SkMel-28, 50 μM
# Method: PolyA+ mRNA from human adult skin was purchased from Invitrogen. SkMel-28 and HEM polyA+ mRNA was extracted from 5×10^6 cells using the Illustra Quick Prep Micro mRNA purification kit (GE Healthcare). mRNA (200 ng) was used to synthesize cDNA using SuperScript First-Strand Synthesis System (Invitrogen). PCR amplification of 2 μL of the cDNA strand generated was carried out in a total volume of 50 μL using an Eppendorf Mastercycler Thermal Cycler. Samples were amplified by 40 cycles at 95° C. (1 min), 62° C. (1 min) and 72° C. (1 min). The amplified PCR products were subjected to electrophoresis in 3% agarose gel and stained with ethidium bromide.
# Primers were designer using Primer Express version 2.0 software (Applied Biosystems, Foster City, Calif.) and synthesized by Invitrogen. […] Amplification of target gene sequences were compared against serial dilutions of know quantities of their purified cDNA fragments, and normalized to the abundance of the house-keeping gene β-actin.
# Caspase-3 mRNA = Caspase-3 mRNA expression (real-time PCR); type: cell-based, human; conditions: SkMel-28, 50 μM, 7 days
# Method: Histograms compare the estimated relative levels of the mRNA with respect to that of β-actin. Values represent the number of copies of mRNA per each 1×10^6 copies of β-actin.
# cDNA samples (1 μL) were used for real-time PCR in a total volume of 20 μL using SYBR Green Reagent (Applied Biosystems) and specific primers on a 7500 Real Time PCR System of Applied Biosystems. The PCR amplification cycles included denaturation 95° C., 15 min; to activate HotStar Taq DNA polymerase and to minimize primer-dimer contribution), and amplification [over 40-50 cycles including denaturation (94° C.; 30 s), annealing (55° C.; 30 s), and extension (72° C.; 1 min)]. All PCR reactions were performed in triplicate and from at least two independent experiments. Non-RT control and negative control samples (without template) were processed in the same manner. The specificity of the amplification was verified by melting curve analysis for all samples, and occasionally by agarosa gel electrophoresis. Amplification of target gene sequences were compared against serial dilutions of know quantities of their purified cDNA fragments, and normalized to the abundance of the house-keeping gene β-actin.
# B16 melanoma cells = experiment: Metastasis model, B16 cells injected into tail vein; type: in vivo, mouse; conditions: TMECG 20 mg/Kg/d plus Dipyridamol 10 mg/Kg/d intraperitoneal, 30 days, female mice
# Method: B16 melanoma cells were injected into the tail vein, allowing microtumours to develop (1 week), then, the animal were treated for 21 days with […]) plus Dipyridamol (10 mg/Kg/d) by intraperitoneal injection. The animals were sacrifice and lungs and liver analyzed for tumor growth. We have now increased the number of treated and control animals (treated 21 female mice compared with 21 control (untreated) females) and the time of treatment (30 days). […] 31).
# human tyrosinase = biological target: T1, human tyrosinase (Homo sapiens, UniProt P14679); experiment: Tyrosinase-catalyzed oxidation, steady-state kinetics; type: biochemical; design: Human tyrosinase was purified to homogeneity from SkMel-28 (1×10^8 cells) following the protocol designed by Yurkow and Laskin (1989); endogenous in cells; host or cells: SkMel-28; conditions: human tyrosinase from SkMel-28, pH 5.5, 25° C.; read-out: Michaelis-Menten constant (Km)
# T1 sequence (P14679 19-529): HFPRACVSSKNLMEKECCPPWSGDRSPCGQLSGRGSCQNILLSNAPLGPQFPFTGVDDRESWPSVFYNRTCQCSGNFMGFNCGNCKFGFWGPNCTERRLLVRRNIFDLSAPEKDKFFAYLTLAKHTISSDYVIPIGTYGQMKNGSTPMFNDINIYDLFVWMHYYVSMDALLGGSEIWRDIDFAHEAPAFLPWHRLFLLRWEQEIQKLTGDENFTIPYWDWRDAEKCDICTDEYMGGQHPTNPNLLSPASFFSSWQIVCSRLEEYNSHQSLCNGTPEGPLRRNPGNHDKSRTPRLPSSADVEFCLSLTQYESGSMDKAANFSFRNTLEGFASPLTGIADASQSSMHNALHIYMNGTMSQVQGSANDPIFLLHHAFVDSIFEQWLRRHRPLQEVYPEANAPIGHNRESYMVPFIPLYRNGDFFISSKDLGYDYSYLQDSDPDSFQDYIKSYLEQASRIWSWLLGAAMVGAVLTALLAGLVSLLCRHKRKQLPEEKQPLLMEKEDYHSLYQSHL
# Method: The arrow represents the absorbance direction and the time between recordings was 1 min. […] Data was fitted to the Michaelis-Menten equation using non-lineal regression analysis.
# Human tyrosinase was purified to homogeneity from SkMel-28 (1×10^8 cells) following the protocol designed by Yurkow and Laskin (1989). TMECG oxidation catalyzed by human tyrosinase was followed using a Perkin-Elmer Lambda-35 spectrophotometer. Steady-state kinetic constants were obtained by measuring the initial rates of TMECG oxidation at 412 nm in 30 mM sodium acetate buffer, pH 5.5 and 25° C.
compound,measurement,setting,value
"COc1cc(C(=O)O[C@@H]2Cc3c(O)cc(O)cc3O[C@@H]2c2ccc(O)c(O)c2)cc(OC)c1OC [TMECG, 3-O-(3,4,5-trimethoxybenzoyl)-(−)-epicatechin]",IC50,H1264 cells,18 µM
same,mature FRα mRNA (RT-PCR),FRα mRNA; 3 days,partially restored the levels of mature FRα mRNA
same,"FRα expression (exon 5 region, real-time PCR)",FRα mRNA; 5 days of treatment,no apparent effect on its expression
same,"Caspase-3 mRNA, higher than in HeM or untreated SkMel-28",Caspase-3 mRNA,around 30 times
same,lung metastasis,B16 melanoma cells,reduction on lung metastasis
same,Km,human tyrosinase,120 ± 20 µM
